Assay results: patent publication US5877185A, “Synergistic compositions useful as anti-tumor agents” (priority 1995, dated 1999)
pIC50: −log10 of the molar value.

Legend:
[1] = system: HIV-1 (MN strain) virions; experiment: zinc loss from treatment of HIV-1 virions with NOBA; format: biochemical
Protocol: Experiments were performed to determine if NOBA is capable of ejecting zinc from intact virions. HIV-1 (MN strain) was produced, purified and concentrated as described in Bess et al., J. Virol. 66:840-847 (1992). The concentrated virus was diluted to 60 times that of culture fluid in TNE buffer (0.01M Tris-HCl, 0.1M NaCl, 1 mM EDTA, pH 7.2) and incubated with 3000 or 6000 μM NOBA at 37° C. The virus was then pelleted and washed with TNE buffer to remove weakly bound zinc. The quantity of zinc in the resulting viral pellets was determined as described in Bess et al., J. Virol. 66:840-847 (1992).

[2] = system: HIV-1 (MN strain); experiment: infectivity of NOBA-treated HIV-1 virions; format: cell-based; details: 3000 or 6000 μM NOBA, 37° C.
[3] = system: HIV-1 (LAV strain); experiment: in vitro anti-retroviral testing (HIV-1 inactivation) in human peripheral lymphocytes (PBL); format: cell-based
Protocol: Both 6-NOBP and NOBA were tested on viral growth of HIV-1 (LAV strain) in phytohemagglutinin-stimulated human peripheral lymphocytes (PBL). An HIV-1 stock having an infectivity titer of 100,000 TCID50 was incubated for 30 min. at 22° C. with either of the drugs. Control HIV samples, containing no drugs, were incubated in the same manner. […] At the end of this incubation cultures were assayed for productive infection by an immunoassay for HIV-1 antigens and by reverse transcriptase as described in McDougal et al., J. Immunol. Methods 76:171-183 (1985). Virus titers were expressed as percentile values (percent infected cultures) compared to the controls, containing HIV dilutions which were not preincubated with the C-nitroso drugs. In a separate series of experiments, HIV-1 dilutions and C-nitroso drugs (see upper abscissa) were not preincubated but were added simultaneously to lymphocytes in exactly the same concentrations as described previously (i.e., following preincubation) and viral growth monitored 9 days later.

[4] = reduction by GSH and ascorbate in in vitro chemical tests; format: physicochemical
[5] = system: human immunodeficiency virus HIV-1; details: human lymphocytes; cited from earlier work
[6] = system: MCF-7-B-ADR; experiment: cytotoxicity of INO2 BA with and without BSO, MCF-7-B-ADR; format: cell-based; details: Homo sapiens
Protocol: (§1) The concentration of BSO was 1 mM for all cell lines except HT 144, where the concentration was 0.25 mM. Cells were seeded in the recommended growth medium at a density of 1.5×10^4 cell/cm^2 into 2 cm^2 wells. Drugs were added simultaneously 4 hours after seeding, and incubation was continued for 48 hours at 37° C. in a 5% CO2 atmosphere. For assessment of drug effects cells were detached by trypsinization and counted in a hemacytometer.
(§2) Cell lines Nos. 1-4 were obtained from Dr. C. Benz, University of California, San Francisco. MDA 468 and MCF-7 human mammary cancer lines, MCF-7-B-ADR drug-resistant mammary cancer line, Du 145 drug-resistant human prostate cancer line, HT 144 human melanoma cell line, Hep-G2 human hepatocellular carcinoma line, and PC-12 rat pheochromocytoma line were obtained from the University of California Cell Culture Facility.

[7] = system: Hep-G2; experiment: cytotoxicity of INO2 BA with and without BSO, Hep-G2; format: cell-based; details: Homo sapiens
Protocol: as §1, §2

[8] = system: Molt-4; experiment: cytotoxicity of INO2 BA with and without BSO, Molt-4; format: cell-based; details: Homo sapiens, INO2 BA alone, 48 hours
Protocol: as §1, §2

[9] = system: SIVmac239 or virus isolates in CEM ×174 cells; experiment: SIV replication in CEM ×174 cells, SIV p27 core antigen assay; format: cell-based
Excerpt: Infected cell cultures described in FIG. 4 were used for determination of supernatant virus titers by SIV p27 core antigen assay as described in Example XIV. The ordinate represents p27 ELISA performed on day 10 of the assay and the abscissa represents the concentration of INO2 BA alone (rear rows in panels A, B and C) and in combination with BSO (front rows in panels A, B and C).
CEM ×174 cells (3×10^5 /ml) were infected with 3.75 TCID50 /ml (50% tissue culture infectious dosage per ml of cell suspension) stock solution of SIVmac239 or virus isolates from SIVmac239-infected rhesus macaques on day 0. Uniform infection of cells was ensured by the infection of one cell population only per virus preparation. Three days post-infection, the cells were distributed (500 μl/well) into individual wells of a 24-well plate. Fresh medium containing INO2 BA concentrations ranging from 0 to 300 μM and/or BSO concentrations ranging from 0 to 0.25 mM were added to establish final 1-ml reaction volumes, and the cultures were further incubated for 4 days. The wells were then replenished with fresh CEM ×174 cells (3×10^5 /ml), INO2 BA and/or BSO were re-added at the same concentrations as in the original incubates, and incubation was continued for an additional 3 days. This procedure intends to mimic conditions of in vivo chemotherapy. Cell viability and virus titers in the supernatant were determined on day 10 (3 days after the addition of new cells) by the tetrazolium (MTT) method of Hansen et al., J. Immunol. Methods 119:208-210 (1982) and by the SIV p27 and reverse transcriptase (RT) assays described by Chuang et al., FEBS Lett. 326:140-144 (1993), respectively.
SIVmac p27 core antigen levels were determined by an enzyme immunoassay provided by Coulter Corp. (Hialeah, Fla.). The assay was performed according to the manufacturer's specifications.

Row | SMILES | Zinc Loss ([1]; 3,000 μM NOBA, 2 hr) | Zinc, NOBA-Treated Sample ([1]; 3,000 μM NOBA, 2 hr, control 0.21) | Zinc Loss ([1]; 6,000 μM NOBA, 4 hr) | Zinc, NOBA-Treated Sample ([1]; 6,000 μM NOBA, 4 hr, control 0.24) | loss of viral proteins in the pellet ([1]; 3000 or 6000 μM NOBA) | infectivity [2] | TCID50 (calculated infectious titer after treatment) ([3]; 100 μM) | decrease of relative amount of infectious virus available to cause 50% infected cultures ([3]; 30 min. at 22° C., FIG. 7A) | log reduction at 100 µM ([3]; Human immunodeficiency virus 1, Lymphocyte, 0.5 h, 100 μM, of TCID50, read-out: Decrease) | inhibition at 100 µM ([3]; Human immunodeficiency virus 1, Lymphocyte, 100 μM) | reduction to the corresponding hydroxyl amines [4] | inhibition of HIV-1 infection [5] | IC100 ([6]; 48 h, read-out: LD100) | pIC50 ([6]; INO2 BA alone, 48 hours, read-out: I50) | IC100 ([7]; HepG2, 48 h, read-out: LD100) | pIC50 ([7]; HepG2, INO2 BA alone, 48 hours, read-out: I50) | pIC50 ([8]; read-out: I50) | IC100 ([8]; read-out: LD100) | SIV p27 formation ([9]; INO2 BA alone, FIG. 5A-C) | effect of GSH depletion by BSO on inhibitory effect on SIV replication ([9]; with BSO, CEM ×174 cells)
1 | NC(=O)c1cccc(N=O)c1 [NOBA, 3-nitrosobenzamide] | 52% | 0.11 µg/mL | 83% | 0.04 µg/mL | No significant loss | complete loss of infectivity | 11 TCID50 | 4 log units | 4.2 | > 100% | rapidly reduced | inhibit infection |  |  |  |  |  |  |  | 
2 | NC(=O)c1ccc(I)c([N+](=O)[O-])c1 [INO2 BA, 4-iodo-3-nitrobenzamide] |  |  |  |  |  |  |  |  |  |  |  |  | 220 µM | 4.05 | 200 µM | 3.92 | 4.15 | 196 µM | almost complete inhibition | synergistically enhances
